Measurements taken from ChEMBL document CHEMBL1132875, “Bicyclic pyridones as potent, efficacious and orally bioavailable thrombin inhibitors” (Bioorg Med Chem Lett, 2000).

Columns and labels:
[1] = The compound was tested in vitro for its anticoagulant potency (2x APTT) of human plasma; format: functional
[2] = target: Serine protease 1 (Homo sapiens, UniProt P07477); test: The compound was tested for its ability to inhibit trypsin.
[3] = target: Prothrombin (Homo sapiens, UniProt P00734); test: The compound was tested for its ability to inhibit thrombin.
[4] = system: Rattus norvegicus; test: Final plasma concentration when 3 ug/kg/min compound administered intravenously in rat; format: ADME, organism-based; conditions: in vivo, iv, 0.003 mg/kg
[5] = system: Rattus norvegicus; test: Compound was tested in vivo for its antithrombotic efficacy in six rats upon intravenous administration of 3 ug/kg/min dose and activity expressed as number of occlusions; format: functional
[6] = Cmax in dog plasma after 1mg/kg oral dose; format: ADME, organism-based, Canis lupus familiaris; set-up: dose 1 mg/kg, route oral
[7] = (§1) Half life was determined after oral administration at 1 mg/kg in dogs; format: ADME, organism-based, Canis lupus familiaris; set-up: dose 1 mg/kg, route oral; conditions: dog, in vivo
[8] = Oral absorption kinetics (AUC) was determined after administration of compound orally at 1 mg/kg in dogs; format: ADME, organism-based, Canis lupus familiaris; set-up: dose 1 mg/kg, route oral; conditions: dog, in vivo
[9] = Maximum time taken for oral absorption was determined after oral administration at 1 mg/kg in dogs; format: ADME, organism-based, Canis lupus familiaris; set-up: dose 1 mg/kg, route oral; conditions: dog, in vivo
[10] = system: Rattus norvegicus; test: Compound was tested in vivo for its antithrombotic efficacy in six rats upon intravenous administration of 10 ug/kg/min dose and activity expressed as number of occlusions; format: functional
[11] = system: Rattus norvegicus; test: Final plasma concentration when 10 ug/kg/min compound administered intravenously in rat; format: ADME, organism-based; conditions: in vivo, iv, 0.01 mg/kg
[12] = system: Rattus norvegicus; test: Compound was tested in vivo for its antithrombotic efficacy in six rats upon intravenous administration of 10 ug/kg/min dose and activity expressed as number of occlusions
[13] = system: Canis familiaris; test: as §1; format: ADME, organism-based, Canis lupus familiaris; set-up: dose 1 mg/kg, route oral; conditions: dog, in vivo

Serine protease 1, sequence (P07477 whole entry): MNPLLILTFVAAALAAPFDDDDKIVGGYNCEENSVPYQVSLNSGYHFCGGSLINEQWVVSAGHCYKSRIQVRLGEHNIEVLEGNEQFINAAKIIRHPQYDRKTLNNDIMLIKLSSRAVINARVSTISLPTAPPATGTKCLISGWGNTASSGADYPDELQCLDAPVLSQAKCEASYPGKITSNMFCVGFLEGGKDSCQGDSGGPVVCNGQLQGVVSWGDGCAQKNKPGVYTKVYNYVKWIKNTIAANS

SMILES | Concentration doubling APTT [1] [nM] | Ki [2] [nM] | Ki [3] [nM] | further results
Cc1nc(N)ccc1CNC(=O)Cn1c(C)cc2c(c1=O)NC(=O)C(CC(C)C)(CC(C)C)C2 | 390 |  |  | 
Cc1nc(N)ccc1CNC(=O)Cn1c(C)cc2c(c1=O)NC(=O)[C@H](Cc1ccccc1)C2 | 200 | 12700 |  | 
CC[C@@H]1Cc2cc(C)n(CC(=O)NCc3ccc(N)nc3C)c(=O)c2NC1=O | 310 | 4200 | 1.6 | 
Cc1nc(N)ccc1CNC(=O)Cn1c(C)cc2c(c1=O)NC(=O)[C@H](CC1CC1)C2 | 150 | 770 | 0.21 | concentration [4]: 185 nM; Activity [5]: 1
CCC[C@@H]1Cc2cc(C)n(CC(=O)NCc3ccc(N)nc3C)c(=O)c2NC1=O | 180 | 510 | 0.33 | 
Cc1nc(N)ccc1CNC(=O)Cn1c(C)cc2c(c1=O)NC(=O)[C@](C)(CC(C)C)C2 | 160 | 860 |  | Cmax [6]: 1370 nM; half-life [7]: 1.5 h; AUC [8]: 2.97 µM·h; Tmax [9]: 0.5 h
Cc1nc(N)ccc1CNC(=O)Cn1c(C)cc2c(c1=O)NC(=O)CC2 |  | 101000 |  | 
Cc1nc(N)ccc1CNC(=O)Cn1c(C)cc2c(c1=O)NC(=O)[C@H](CC1CCC1)C2 | 190 | 420 |  | Activity [10]: 0; concentration [11]: 596 nM
CCC[C@H]1Cc2cc(C)n(CC(=O)NCc3ccc(N)nc3C)c(=O)c2NC1=O |  | 22000 | 36 | 
Cc1nc(N)ccc1CNC(=O)Cn1c(C)cc2c(c1=O)NC(=O)[C@H](CC(C)C)C2 | 220 | 580 | 0.4 | Cmax [6]: 180 nM; Activity [12]: 0; half-life [7]: 2.35 h; concentration [11]: 255 nM; AUC [8]: 0.75 µM·h; Tmax [9]: 1.17 h
Cc1nc(N)ccc1CNC(=O)Cn1c(C)ccc(NS(=O)(=O)Cc2ccccc2)c1=O [L-374087] |  |  |  | T1/2 [13]: 2.57 h; AUC [8]: 4.42 µM·h
